In paper PMC8150775, “Repositioning Azelnidipine as a Dual Inhibitor Targeting CD47/SIRPα and TIGIT/PVR Pathways for Cancer Immuno-Therapy” (Biomolecules, 2021):

System: CT26 tumors
Test: CT26 tumor model with ex vivo T cell analysis
Type: in vivo, BALB/c mice
Conditions: for Spleen CD8+IFN-γ (%): splenocytes
Protocol: BABL/c mice were subcutaneously (s.c.) injected with 2 × 10^5 CT26 cells on the right back, and C57BL/6 mice were injected with 1 × 10^6 MC38 cells. One week later, tumor-bearing mice were randomized into indicated groups, and intraperitoneal (i.p.) injected with azelnidipine or normal saline every day for two weeks. Tumor volumes were measured every other day by the (a) length, (b) width, and (c) height and calculated as volume (V) = a × b × c/2. For the combinational model of azelnidipine and radiotherapy (RT), MC38 tumor-bearing mice received irradiation (IR) when the tumors reached 80–100 mm^3. The mice received one dose of 20 Gy irradiation at the tumor local site, and followed by the treatment of azelnidipine.
Tumor-bearing mice were sacrificed at the end of the treatment. The tumors were dissected and digested into single cell with an enzyme cocktail of 100 U/mL collagenase IV; and Dnase I. The infiltration of CD8^+ T cells at the tumor site was detected by flow cytometry by staining of anti-mouse CD45, anti-mouse CD3, anti-mouse CD8α or isotype control. The MDSCs at the tumor site were analyzed by staining of anti-mouse CD45, anti-mouse CD11b, anti-mouse Ly6C, and anti-mouse Ly6G. Spleens and draining lymph nodes were grinded and filtered into a single cell suspension. The tumor-infiltrating lymphocytes (TILs) isolated by Percoll-gradient centrifugation, splenocytes, and cells from draining lymph nodes were also performed the intracellular cytokine staining assays. The cells were stimulated with or without 20 ng/mL of phorbol 12-myristate 13-acetate (PMA, Sigma-Aldrich, St. Louis, MO, USA) and 1 µM ionomycin (Sigma-Aldrich) with the presence of protein transport inhibitor cocktail (eBioscience) for 4 h. The surface marker CD3, CD8, and the intracellular cytokine marker IFN-γ were sequentially stained according to the Foxp3/Transcription Factor Staining Buffer Set (00-5523, eBioscience). The frequency of IFN-γ secreting CD8^+ T cells were counted according to the fluorescence minus one (FMO) control with the isotype control of IFN-γ antibody.
Figure 6 The antitumor effects of azelnidipine in CT26 tumor model. (A) CT26 tumor-bearing mice were i.p. administrated with 2 or 5 mg/kg of azelnidipine each day for 2 weeks as in the schematic diagram. (B) Tumor growth curve of CT26 tumor-bearing mice treated with normal saline or azelnidipine (n = 7). *, p < 0.05, ***, p < 0.001.Two-way ANOVA with Tukey’s multiple-comparisons test were conducted. (C) Representative flow cytometry plots and summary data of the frequency of CD8^+ T cells in the tumor tissues. Representative intracellular IFN-γ staining plots and summary data of the tumor infiltrating CD8^+ T cells (D), tumor-draining lymph node cells (E) and splenocytes (F). The frequency of IFN-γ secreting CD8^+ T cells were counted according to the fluorescence minus one (FMO) control with the isotype control of IFN-γ antibody. *, p < 0.05, **, p < 0.01, Student’s t-test were conducted. TEXT PRINTED IN THE PICTURE: (C) NS: Tumor CD3^+CD8^+ (%): 6.27 | (C) Azelnidipine: Tumor CD3^+CD8^+ (%): 7.46 (2 mg/kg); Tumor CD3^+CD8^+ (%): 9.35 (5 mg/kg) | (D) NS: Tumor CD8^+IFN-γ (%): 14.8 | (D) Azelnidipine: Tumor CD8^+IFN-γ (%): 12.4 (2 mg/kg); Tumor CD8^+IFN-γ (%): 20.0 (5 mg/kg) | (E) NS: dLN CD8^+IFN-γ (%): 0.45 | (E) Azelnidipine: dLN CD8^+IFN-γ (%): 0.53 (2 mg/kg); dLN CD8^+IFN-γ (%): 1.10 (5 mg/kg) | (F) NS: Spleen CD8^+IFN-γ (%): 5.32 | (F) Azelnidipine: Spleen CD8^+IFN-γ (%): 7.71 (2 mg/kg); Spleen CD8^+IFN-γ (%): 7.91 (5 mg/kg) DOUBTS OF THE COPYIST ABOUT THIS PICTURE: Panels C-F: the flow plots are headed only 'NS', '2 mg/kg' and '5 mg/kg'. The name 'Azelnidipine' is taken from panels A and B of the same picture. / Panels C-F: the numbers in the flow plots have no measure or unit beside them. The measure (e.g. 'CD3^+CD8^+ (%)') and the tissue ('Tumor', 'dLN', 'Spleen') are taken from the bar chart in the same panel. / NS is the control group. […]

Question: For `CC1=C(C(=O)OC(C)C)C(c2cccc([N+](=O)[O-])c2)C(C(=O)OC2CN(C(c3ccccc3)c3ccccc3)C2)=C(N)N1` (stereo not drawn) [Azelnidipine], which “Spleen CD8+IFN-γ (%)” value (2 mg/kg i.p. (low dosage)) is on record?
Answer: enhance

Question: And the “Spleen CD8+IFN-γ (%)” value (5 mg/kg i.p. (high dosage))?
Answer: significantly boost

Question: And the “dLN CD8+IFN-γ (%)” value (5 mg/kg i.p. (high dosage), tumor-draining lymph node)?
Answer: significantly boost

Question: What about the CT26 tumor growth (2 and 5 mg/kg i.p. each day for 2 weeks) of the same compound?
Answer: significantly restrict

Question: What about the “IFN-γ secretion function of the tumor infiltrating CD8+ T cells” value (dose not given) of the same compound?
Answer: enhanced

Question: And the “frequency of CD8+ T cells in the tumor tissues” value (dose not given)?
Answer: remarkably increase
